Results taken from US8507464B2, “Phosphoramidate alkylator prodrugs” (Threshold Pharmaceuticals, Inc., priority 2005, dated 2013).
Where two headings read alike, the source gives them in different places.

Columns and labels:
EM9 cells (XRCC1) = experiment: Antiproliferation assay - DNA mutant repair cells; details: Cricetulus griseus, 2 h
in vivo = details: for half-life: t ½, mice
UV135 cells (XPG) = experiment: Antiproliferation assay - DNA mutant repair cells; details: Cricetulus griseus, 2 h
human H460 cells = experiment: Clonogenic survival assay, hypoxia vs normoxia (Table 1A); details: for IC90: Homo sapiens
DX-5 = experiment: Anti-proliferation assay, hypoxia vs normoxia (Table 1B)
HT29 cells = experiment: Antiproliferation assay (Alamar Blue), anoxia vs air; details: Homo sapiens, HT-29, 2 h
[1] = test system: H460 lung carcinoma spheroids; experiment: Spheroid model, clonogenic survival; details: Homo sapiens, NCI-H460, 2 h, read-out: IC90 H460 Spheroid 10% O2
MES-SA cells = experiment: Antiproliferation assay (Alamar Blue), anoxia vs air; details: Homo sapiens, 2 h
IRS1SF cells (XRCC3) = experiment: Antiproliferation assay - DNA mutant repair cells; details: Cricetulus griseus, 2 h
UV41 cells (XPF) = experiment: Antiproliferation assay - DNA mutant repair cells; details: Cricetulus griseus, 2 h
[2] = format: physicochemical; details: glassy carbon, Ag/AgCl reference; for Reduction Potentials, 100 mV/sec: scan rate 100 mV/sec; for Reduction Potentials, 10,000 mV/sec: scan rate 10,000 mV/sec
NCI-H460 cells [3] = experiment: Antiproliferation assay (Alamar Blue), anoxia vs air; details: Homo sapiens, NCI-H460, 2 h
HT29 = experiment: Anti-proliferation assay, hypoxia vs normoxia (Table 1B); details: for IC50: Homo sapiens
AA8 cells (wild type) = experiment: Antiproliferation assay - DNA mutant repair cells; details: Cricetulus griseus, CHO-AA8, 2 h
H460 cell line = experiment: Anti-proliferation assay, hypoxia vs normoxia (Table 1A); details: for IC50: Homo sapiens; for HCR P: ratio of IC50 in normoxia and hypoxia
[4] = test system: H460 cells exposed as monolayers; experiment: Clonogenic survival of monolayer cells (Example 35); details: Homo sapiens, NCI-H460, 2 h
NCI-H460 cells [5] = experiment: Antiproliferation assay - oxygen dependence; format: cell-based, human; details: Homo sapiens
Source text: . […] The calculated IC50 values (μM) are tabulated in Table Y1 (H460 cells) or Table Y2 (HT29 cells) below.

MES-SA/Dx5 cells = experiment: Antiproliferation assay (Alamar Blue), anoxia vs air; details: Homo sapiens, MES-SA/Dx5, 2 h
HCT116 = experiment: Anti-proliferation assay, hypoxia vs normoxia (Table 1B); details: for IC50: Homo sapiens
[6] = Plasma stability (Table 2B)
NCI-H460 cells [7] = experiment: Clonogenic assay - oxygen dependence; details: Homo sapiens
[8] = CD-1, Balb/c for Compound 1, mouse, ip
[9] = CD-1, Balb/c for Compound 1, mouse, iv
[10] = CD-1, Balb/c for Compound 1, mouse, iv, intravenous administration in mice
[11] = mouse, ip, intraperitoneal administration in mice
[12] = read-out: DX-5 P H (proliferation IC50, hypoxia)
[13] = read-out: DX-5 P N (proliferation IC50, normoxic)
[14] = read-out: IC50 H460 Air, air, 2 h exposure
[15] = read-out: IC50 H460 Anoxia, anoxia, 2 h exposure
[16] = HT-29, read-out: HT29 P H (proliferation IC50, hypoxia)
[17] = HT-29, read-out: HT29 P N (proliferation IC50, normoxic)
[18] = NCI-H460, read-out: Hypoxia P (proliferation IC50)
[19] = NCI-H460, read-out: Normoxia P (proliferation IC50)
[20] = read-out: IC90 H460 Monolayer Air
[21] = read-out: IC90 H460 Monolayer N2
[22] = NCI-H460, read-out: IC50 in H460 cells, 0.1% O2
[23] = NCI-H460, read-out: IC50 in H460 cells, 0.6% O2
[24] = NCI-H460, read-out: IC50 in H460 cells, 1% O2
[25] = NCI-H460, read-out: IC50 in H460 cells, 10% O2
[26] = NCI-H460, read-out: IC50 in H460 cells, Air
[27] = NCI-H460, read-out: IC50 in H460 cells, N2
[28] = read-out: IC50 MES-SA/Dx5 Anoxia
[29] = HCT-116, read-out: HCT116 P H (proliferation IC50, hypoxia)
[30] = HCT-116, read-out: HCT116 P N (proliferation IC50, normoxic)

Cn1c(COP(=O)(NCCCl)NCCCl)cnc1[N+](=O)[O-] [Compound 36] gave an IC50 (EM9 cells (XRCC1); read-out: IC50 EM9 Air) of over 100 µM, an IC50 (EM9 cells (XRCC1); read-out: IC50 EM9 Anoxia) of 4 µM and a clearance (in vivo; CD-1 (Compounds 5, 23, 36), Balb/c (Compound 1), mouse, iv) of 77.4 mL/min/kg. The Cmax (in vivo; [8]) was 44000 ng/mL, the AUC (in vivo; [9]) was 10800 ng·h/mL and the Cmax (in vivo; [9]) was 27700 ng/mL. For the same compound, the Vd (in vivo; [9]) was 1.27 L/kg, the half-life (in vivo; [10]) was 14.4 min and the AUC (in vivo; CD-1, mouse, ip) was 26100 ng·h/mL. The half-life (in vivo; [11]) was 10.8 min, the IC50 (UV135 cells (XPG); read-out: IC50 UV135 Air) was over 100 µM and the IC50 (UV135 cells (XPG); read-out: IC50 UV135 Anoxia) was 2 µM. For the same compound, the IC90 (human H460 cells; NCI-H460, read-out: Hypoxia C (clonogenic IC90)) was 0.2 µM, the IC90 (human H460 cells; NCI-H460, read-out: Normoxia C (clonogenic IC90)) was over 100 µM and the “HCR C” value (human H460 cells; ratio of IC90 in normoxia and hypoxia) was over 500. The “DX-5 HCR” value (DX-5) was over 13, the IC50 (DX-5; [12]) was 7.5 µM and the IC50 (DX-5; [13]) was over 100 µM. The IC50 (HT29 cells; read-out: IC50 HT29 Air) was over 100 µM, the IC50 (HT29 cells; read-out: IC50 HT29 Anoxia) was 55 µM and the IC90 [1] was over 100 µM. It also gave an IC50 (MES-SA cells; read-out: IC50 MES-SA Air) of over 100 µM, an IC50 (MES-SA cells; read-out: IC50 MES-SA Anoxia) of 5 µM and an IC50 (IRS1SF cells (XRCC3); read-out: IC50 IRS1SF Air) of 59 µM. It also gave an IC50 (IRS1SF cells (XRCC3); read-out: IC50 IRS1SF Anoxia) of 0.3 µM, an IC50 (UV41 cells (XPF); read-out: IC50 UV41 Air) of 20 µM and an IC50 (UV41 cells (XPF); read-out: IC50 UV41 Anoxia) of 0.03 µM. For the same compound, the “Reduction Potentials, 100 mV/sec” value [2] was −609 mV, the “Reduction Potentials, 10,000 mV/sec” value [2] was −634 mV and the IC50 (NCI-H460 cells [3]; [14]) was over 100 µM. The IC50 (NCI-H460 cells [3]; [15]) was 0.88 µM, the “HT29 HCR P” value (HT29) was over 2 and the IC50 (HT29; [16]) was 55 µM. It also gave an IC50 (HT29; HT-29, read-out: HT29 P H, value in parentheses) of 35 µM, an IC50 (HT29; [17]) of over 100 µM and an IC50 (AA8 cells (wild type); read-out: IC50 AA8 Air) of over 100 µM. The IC50 (AA8 cells (wild type); read-out: IC50 AA8 Anoxia) was 2 µM, the IC50 (H460 cell line; [18]) was 0.88 µM and the IC50 (H460 cell line; [19]) was over 100 µM. For the same compound, the “HCR P” value (H460 cell line) was over 110, the IC90 [4, 20] was 100 µM and the IC90 [4, 21] was 1 µM. The IC50 (NCI-H460 cells [5]; [22]) was 30 µM, the IC50 (NCI-H460 cells [5]; [23]) was 60 µM and the IC50 (NCI-H460 cells [5]; [24]) was 60 µM. For the same compound, the IC50 (NCI-H460 cells [5]; [25]) was over 100 µM, the IC50 (NCI-H460 cells [5]; [26]) was over 100 µM and the IC50 (NCI-H460 cells [5]; [27]) was 1 µM. For the same compound, the IC50 (MES-SA/Dx5 cells; read-out: IC50 MES-SA/Dx5 Air) was over 100 µM, the IC50 (MES-SA/Dx5 cells; [28]) was 7.5 µM and the “HCT116 HCR” value (HCT116) was over 20. The IC50 (HCT116; [29]) was 5 µM, the IC50 (HCT116; [30]) was over 100 µM and the “Plasma stability (% at 30 min)” value ([6]; 30 min) was 60%.

Cn1c(COP(=O)(NCCBr)NCCBr)cnc1[N+](=O)[O-] [Compound 25] showed an IC90 (NCI-H460 cells [7]; NCI-H460, read-out: IC90 H460 0.1% O2) of 0.4 µM, an IC90 (NCI-H460 cells [7]; NCI-H460, read-out: IC90 H460 0.6% O2) of 5 µM and an IC90 (NCI-H460 cells [7]; NCI-H460, read-out: IC90 H460 Air) of 30 µM. It also gave an IC90 (NCI-H460 cells [7]; NCI-H460, read-out: IC90 H460 N2) of 0.1 µM, an IC50 (EM9 cells (XRCC1); read-out: IC50 EM9 Air) of over 100 µM and an IC50 (EM9 cells (XRCC1); read-out: IC50 EM9 Anoxia) of 7 µM. It also gave a Cmax (in vivo; [8]) of 22900 ng/mL, a Cmax (in vivo; [9]) of 27500 ng/mL and a half-life (in vivo; [10]) of 6.6 min. It also gave a half-life (in vivo; mouse, ip, intraperitoneal administration in mice (min)) of 11 min, a half-life (in vivo; [11]) of 10.8 min and a half-life (in vivo; mouse, iv, intravenous administration in mice (min)) of 6.7 min. The IC50 (UV135 cells (XPG); read-out: IC50 UV135 Air) was over 100 µM, the IC50 (UV135 cells (XPG); read-out: IC50 UV135 Anoxia) was 6 µM and the “DX-5 HCR” value (DX-5) was over 100. For the same compound, the IC50 (DX-5; [12]) was 1 µM, the IC50 (DX-5; [13]) was over 100 µM and the IC50 (HT29 cells; read-out: IC50 HT29 Air) was over 100 µM. The IC50 (HT29 cells; read-out: IC50 HT29 Anoxia) was 16 µM, the IC90 [1] was 15 µM and the IC50 (MES-SA cells; read-out: IC50 MES-SA Air) was over 100 µM. It also gave an IC50 (MES-SA cells; read-out: IC50 MES-SA Anoxia) of 0.9 µM, an IC50 (IRS1SF cells (XRCC3); read-out: IC50 IRS1SF Air) of over 100 µM and an IC50 (IRS1SF cells (XRCC3); read-out: IC50 IRS1SF Anoxia) of 2 µM. The IC50 (UV41 cells (XPF); read-out: IC50 UV41 Air) was 95 µM, the IC50 (UV41 cells (XPF); read-out: IC50 UV41 Anoxia) was 0.2 µM and the “Reduction Potentials, 100 mV/sec” value [2] was −594 mV. The “Reduction Potentials, 10,000 mV/sec” value [2] was −626 mV, the IC50 (NCI-H460 cells [3]; [14]) was 86 µM and the IC50 (NCI-H460 cells [3]; [15]) was 0.15 µM. For the same compound, the “HT29 HCR P” value (HT29) was over 6, the IC50 (HT29; [16]) was 16 µM and the IC50 (HT29; [17]) was over 100 µM. The IC50 (AA8 cells (wild type); read-out: IC50 AA8 Air) was over 100 µM, the IC50 (AA8 cells (wild type); read-out: IC50 AA8 Anoxia) was 8 µM and the IC50 (H460 cell line; [18]) was 0.05 µM. The IC50 (H460 cell line; NCI-H460, read-out: IC50 in cells under hypoxia) was 0.05 µM, the IC50 (H460 cell line; [19]) was 50 µM and the “fold more toxic in hypoxic cells than in normoxic cells” value (H460 cell line; anti-proliferation cytotoxicity assay) was 1000 fold. For the same compound, the “HCR P” value (H460 cell line) was 1000, the IC90 ([4]; read-out: IC90 H460 Monolayer 0.6% O2) was 0.6 µM and the IC90 [4, 20] was 20 µM. For the same compound, the IC90 [4, 21] was 0.1 µM, the IC50 (NCI-H460 cells [5]; [22]) was 1 µM and the IC50 (NCI-H460 cells [5]; NCI-H460, read-out: IC50 in H460 cells, 0.3% O2) was 3 µM. For the same compound, the IC50 (NCI-H460 cells [5]; [23]) was 5 µM, the IC50 (NCI-H460 cells [5]; [24]) was 10 µM and the IC50 (NCI-H460 cells [5]; [25]) was 25 µM. For the same compound, the IC50 (NCI-H460 cells [5]; [26]) was 55 µM, the IC50 (NCI-H460 cells [5]; [27]) was 0.1 µM and the IC50 (MES-SA/Dx5 cells; read-out: IC50 MES-SA/Dx5 Air) was over 100 µM. For the same compound, the IC50 (MES-SA/Dx5 cells; [28]) was 0.3 µM, the “HCT116 HCR” value (HCT116) was over 100 and the IC50 (HCT116; [29]) was 0.9 µM. The IC50 (HCT116; [30]) was over 100 µM and the “Plasma stability (at 20 min)” value ([6]; at 20 min) was 102%.
